One assay deals with S100A4 (Homo sapiens, UniProt P26447). The experiment in a line: Protein labeling detection by mass spectrometry, S100A4. The following applies: 10 μM S100A4, 100 μM inhibitor, 1 h.
Another assay concerns the target T1, S100A11-AnII (Homo sapiens, UniProt P31949).
T1 construct: made in house; host or cells: E. coli Rosetta (DE3); peptide from LifeTein
T1 sequence (P31949 1-105): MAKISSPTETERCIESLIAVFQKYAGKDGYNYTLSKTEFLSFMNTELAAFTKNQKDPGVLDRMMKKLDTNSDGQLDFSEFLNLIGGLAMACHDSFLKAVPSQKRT
The experiment in a line: HTRF (TR-FRET) peptide displacement S100A11-AnII. Type of assay: binding. The note with it: supplementary CSV. The protocol:
Table S4: Compound IDs and SMILES … S30 […]
(§1) Peptide displacement assay development
(§2) addition of an inhibitor.
(§3) Assay was done in 384-well
(§4) After 2 hours of incubation at
(§5) concentration range to avoid the saturation of the signal.

Another assay has as its target S100A4-NMII (Homo sapiens, UniProt P26447). The experiment in a line: HTRF (TR-FRET) peptide displacement S100A4-NMII (MPN peptide). Type of assay: binding. Also on record: made in house; host or cells: E. coli Rosetta (DE3); peptide from LifeTein. The note with it: supplementary CSV; read-out: S100A4 IC50 HTRF assay. The method, then: as §1, §2, §3, §4, §5

Bounds are passed on as bounds.

Chain of S100A4-NMII (P26447 whole entry): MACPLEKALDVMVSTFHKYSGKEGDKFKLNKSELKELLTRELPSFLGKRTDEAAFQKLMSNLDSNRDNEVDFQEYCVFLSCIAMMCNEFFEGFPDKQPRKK
Chain of S100A4 (P26447 whole entry): as above

`CC(C)c1c(-c2ccc(OCCNC(=O)/C=C/C(=O)c3ccccc3)cc2)[nH]c2c(C#N)cnn2c1=O` [2a]: the “S100A4 covalent modification pattern (in words)” value at S100A4 was “multiple adduct additions”. In addition, the values for the IC50 at S100A11-AnII and on S100A4-NMII were 3.67 µM and 0.43 µM, respectively.
In the same order, the values of `CC(C)c1c(-c2cnn(C3CCN(C(=O)/C=C/C(=O)c4ccccc4)CC3)c2)[nH]c2c(C#N)cnn2c1=O` [2b] are “multiple adduct additions”, 1.35 µM and 0.48 µM.
In the case of `CC(C)c1c(-c2cnn(CCNC(=O)/C=C/C(=O)c3ccccc3)c2)[nH]c2c(C#N)cnn2c1=O` [2c], the figures for the IC50 on S100A11-AnII and on S100A4-NMII were 5.6 µM and 1.79 µM, respectively.
For the compound `O=C(CCl)Nc1ccc2c(c1)CN(CCc1cnn(-c3nccc4c(=O)[nH]cnc34)c1)CC2` [2d], the values for the IC50 at S100A11-AnII and on S100A4-NMII were greater than 30 µM and 9.24 µM, respectively.
As for `O=C(CCl)Nc1cccc(CN(CCc2cnn(-c3nccc4c(=O)[nH]cnc34)c2)C2CCCC2)c1` [3a], the IC50 at S100A11-AnII was greater than 30 µM; at S100A4-NMII, 2.4 µM.
Taken in the same sequence, the figures for `C=CC(=O)Nc1cccc(CN(CCc2cnn(-c3nccc4c(=O)[nH]cnc34)c2)C2CCCC2)c1` [3b] were greater than 30 µM and 9.32 µM.
In the same order, the values of `C#CC(=O)N1CCN(CCc2cnn(-c3nccc4c(=O)[nH]cnc34)c2)CC1` [4a] are 8.15 µM and 1.73 µM.

Values taken from paper PMC11571109, “Covalent Inhibitors of S100A4 Block the Formation of a Pro-Metastasis Non-Muscle Myosin 2A Complex” (Journal of Medicinal Chemistry, 2024).
